The results in this text go back to ChEMBL document CHEMBL4043140, “Synthesis of different heterocycles-linked chalcone conjugates as cytotoxic agents and tubulin polymerization inhibitors” (Bioorg Med Chem, 2017).

Molecules are shown by their SMILES.

One test deals with NCI-H460. The experiment in a line: Antiproliferative activity against human NCI-H460 cells after 48 hrs by MTT assay. The format is functional, cell-based. Particulars: NCI-H460, 48 h.
Another test deals with DU-145. The experiment in a line: Antiproliferative activity against human DU145 cells after 48 hrs by MTT assay. The format is functional, cell-based. Conditions: DU-145, 48 h.
Test [1] in a line: Antiproliferative activity against human U87 cells after 48 hrs by MTT assay. The format is functional, cell-based, U-87MG ATCC. Particulars: U-87 MG.
The next test relates to HCT-116. The experiment in a line: Antiproliferative activity against human HCT116 cells after 48 hrs by MTT assay. The format is functional, cell-based. Particulars: HCT-116, 48 h.
The test system of a further test is HCT-15. The experiment in a line: Antiproliferative activity against human HCT15 cells after 48 hrs by MTT assay. The format is functional, cell-based. Particulars: HCT-15, 48 h.
The next test concerns A549. Briefly: Antiproliferative activity against human A549 cells after 48 hrs by MTT assay. It is filed as functional, cell-based. Conditions: A549, 48 h.
A further test deals with PC-3. Briefly: Antiproliferative activity against human PC3 cells after 48 hrs by MTT assay. The format is functional, cell-based. Conditions: PC-3, 48 h.

Take `COc1ccc(C(=O)/C=C/c2ccc(OCCCN3CCc4ccccc43)c(OC)c2)cc1`: the IC50 in the test with NCI-H460 is more than 20 µM; in the test with DU-145 it was 16.1 µM; in test [1], 15.2 µM; in the test on HCT-116, more than 20 µM; in the test with HCT-15 it was 19.9 µM; in the test with A549, 18.7 µM. For the same compound, in the test on PC-3, the concentration for half-maximal inhibition (IC50) is more than 20 µM.
For the compound `COc1cc(/C=C/C(=O)c2ccc(C)cc2)ccc1OCCCN1CC(C)OC(C)C1` (centres undefined), the IC50 is more than 20 µM in the test with NCI-H460; more than 20 µM in the test on DU-145; 4.21 µM in test [1]; 5.45 µM in the test with HCT-116; 8.69 µM with HCT-15; 9.12 µM with A549. Besides, the IC50 in the test on PC-3 is more than 20 µM.
Take `COc1ccc(C(=O)/C=C/c2ccc(OCCCN3CCOCC3)c(OC)c2)cc1`: the half-maximal inhibitory concentration (IC50) came to 9.89 µM in the test on NCI-H460; 2.02 µM in the test with DU-145; 7.12 µM in test [1]; 6.78 µM in the test on HCT-116; 11 µM in the test with HCT-15; 5.36 µM with A549. The compound further registered an IC50 in the test with PC-3 of 7.89 µM.
Turning to `COc1cc(/C=C/C(=O)c2ccc(Cl)cc2Cl)ccc1OCCN1CCOCC1`, the IC50 with NCI-H460 was more than 20 µM; with DU-145, 6.74 µM; in test [1], more than 20 µM; in the test with HCT-116, 19.9 µM; with HCT-15, 18.2 µM; in the test with A549, more than 20 µM. The same compound gave an IC50 in the test on PC-3 of 5.12 µM.
`COc1ccc(C(=O)/C=C/c2ccc(OCCCN3CC(C)OC(C)C3)c(OC)c2)cc1` (centres undefined): the IC50 was found to be 4.18 µM in the test on NCI-H460; 3.27 µM in the test with DU-145; 5.67 µM in test [1]; 7.87 µM with HCT-116; 8.64 µM in the test with HCT-15; 7.42 µM in the test on A549. Further, the IC50 in the test with PC-3 is more than 20 µM.
Turning to `COc1ccc(C(=O)/C=C/c2ccc(OCCCn3nc(C)cc3C)c(OC)c2)cc1`, the IC50 with NCI-H460 is 8.96 µM; in the test on DU-145, 5.74 µM; in test [1], 6.93 µM; in the test with HCT-116 it was 3.97 µM; with HCT-15, 4.03 µM; with A549, 3.7 µM. Also, in the test with PC-3, the IC50 came out at 4.78 µM.
As to `COc1cc(/C=C/C(=O)c2ccc(Br)cc2)ccc1OCCCN1CCCc2ccccc21`, the IC50 was more than 20 µM in the test on NCI-H460; more than 20 µM with DU-145; more than 20 µM in test [1]; more than 20 µM in the test on HCT-116; more than 20 µM in the test on HCT-15; 19.1 µM in the test on A549. This compound showed an IC50 in the test on PC-3 of more than 20 µM.
For the compound `COc1ccc(C(=O)/C=C/c2ccc(OCCCN3CCCc4ccccc43)c(OC)c2)cc1`, the IC50 in the test on NCI-H460 was more than 20 µM; with DU-145, more than 20 µM; in test [1], 18.2 µM; with HCT-116, more than 20 µM; with HCT-15, more than 20 µM; with A549, more than 20 µM. In the test with PC-3, this compound had an IC50 of more than 20 µM.
In the case of `COc1cc(/C=C/C(=O)c2ccccc2)ccc1OCCCN1CCCc2ccccc21`, the IC50 with NCI-H460 is more than 20 µM; with DU-145 it was more than 20 µM; in test [1], 19.8 µM; with HCT-116 it was more than 20 µM; with HCT-15 it was more than 20 µM; in the test on A549, more than 20 µM. Also, in the test on PC-3, the IC50 was more than 20 µM.
Regarding `COc1cc(/C=C/C(=O)c2ccccc2)ccc1OCCCCN1CCCCC1`, the IC50 (in the test with NCI-H460; in the test with DU-145; in test [1]; in the test on HCT-116; in the test on HCT-15; with A549) was more than 20 µM each time. Also, the IC50 in the test with PC-3 is 9.18 µM.
On to `COc1cc(/C=C/C(=O)c2ccc(Cl)cc2Cl)ccc1OCCCN1CCCc2ccccc21`, for which the IC50 (in the test on NCI-H460; with DU-145; in test [1]; in the test with HCT-116; in the test on HCT-15; in the test on A549) was more than 20 µM throughout. This compound also had an IC50 in the test with PC-3 of 8.17 µM.
As for `COc1cc(/C=C/C(=O)c2ccc(C(F)(F)F)cc2)ccc1OCCN1CCOCC1`, the IC50 with NCI-H460 was more than 20 µM; with DU-145, more than 20 µM; in test [1] it was more than 20 µM; in the test with HCT-116 it was more than 20 µM; in the test on HCT-15 it was more than 20 µM; with A549, 19.1 µM. In the test on PC-3, this compound yielded an IC50 of 6.17 µM.
